Target: T1, Recombinant human GR (Homo sapiens, UniProt P04150)
T1 construct: purchased Invitrogen P2816
T1 sequence (P04150 1-777): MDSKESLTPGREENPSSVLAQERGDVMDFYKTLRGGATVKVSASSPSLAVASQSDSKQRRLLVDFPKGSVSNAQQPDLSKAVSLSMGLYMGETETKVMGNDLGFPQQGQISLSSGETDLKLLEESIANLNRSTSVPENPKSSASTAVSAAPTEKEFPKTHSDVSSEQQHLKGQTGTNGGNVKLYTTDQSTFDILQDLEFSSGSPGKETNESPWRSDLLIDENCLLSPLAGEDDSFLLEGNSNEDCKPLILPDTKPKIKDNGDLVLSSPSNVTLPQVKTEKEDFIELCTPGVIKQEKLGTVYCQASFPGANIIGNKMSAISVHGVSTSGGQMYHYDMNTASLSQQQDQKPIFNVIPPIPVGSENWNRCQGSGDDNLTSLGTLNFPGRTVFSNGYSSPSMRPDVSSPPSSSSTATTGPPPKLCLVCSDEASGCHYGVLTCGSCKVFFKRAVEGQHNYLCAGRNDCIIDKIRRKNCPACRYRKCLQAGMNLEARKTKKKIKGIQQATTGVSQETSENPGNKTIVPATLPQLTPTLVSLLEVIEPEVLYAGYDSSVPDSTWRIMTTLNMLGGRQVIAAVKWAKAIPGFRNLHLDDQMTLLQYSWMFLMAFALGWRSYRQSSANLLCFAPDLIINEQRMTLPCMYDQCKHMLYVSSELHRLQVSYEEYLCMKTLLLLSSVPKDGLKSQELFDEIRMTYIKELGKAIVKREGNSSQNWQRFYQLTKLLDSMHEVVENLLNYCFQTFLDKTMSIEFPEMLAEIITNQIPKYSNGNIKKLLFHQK
Test: GR competitor assay by fluorescence polarization (GR binding ratio)
Conditions: positive control 2 mM dexamethasone, a GR binding ratio of 100% or more is indicated by 100%
Procedure: 1. Evaluation Test for Binding Activity to Glucocorticoid Receptor (hereinafter referred to as “GR”)
In order to evaluate a binding activity to GR, a receptor competitor assay was carried out by a fluorescence polarization method. In the assay, a GR competitor assay kit (manufactured by Invitrogen, cat No. P2816) was used, and a procedure was carried out according to the protocol attached to the kit. Hereinafter, the specific method will be described.
GR screening buffer: A buffer containing 10 mM potassium phosphate (pH 7.4), 20 mM sodium molybdate (Na2MoO4), 0.1 mM ethylene diamine tetraacetic acid (EDTA), 5 mM dithiothreitol (DTT), 0.1 mM stabilizing peptide and 2% dimethylsulfoxide was prepared.
4×GS1 solution: Fluormone™ GS1, which is a fluorescent glucocorticoid ligand, was diluted with GR screening buffer, whereby a 4 nM solution was prepared.
4×GR solution: Recombinant human GR was diluted with GR screening buffer, whereby a 16 nM solution was prepared.
After a test compound was dissolved in dimethylsulfoxide, the resulting solution was diluted with GR screening buffer, whereby a 20 μM test compound solution was prepared.
1) The test compound solution was added in an amount of 25 μL or 10 μL into each well of a 96-well or 384-well plate, and then, 4×GS1 solution and 4×GR solution were added in an amount of 12.5 μL or 5 μL into each well, respectively.
2) The plate was incubated in a dark place at room temperature for 2 to 4 hours.
3) By using a multimode plate reader, Analyst™ HT (manufactured by LJL Biosystems), fluorescence polarization of each well was measured. As the blank, a well containing GR screening buffer in place of the test compound and 4×GS1 solution was used.
4) The same procedure as that in the above 1) to 3) was carried out except that GR screening buffer was used in place of the test compound solution, and the obtained result was taken as the negative control.
5) The same procedure as that in the above 1) to 3) was carried out except that 2 mM dexamethasone was used in place of the test compound solution, and the obtained result was taken as the positive control.
A GR binding ratio (%) was calculated from the following equation.
GR binding ratio (%)=100×[1−(fluorescence polarization of test compound solution−fluorescence polarization of positive control solution)/(fluorescence polarization of negative control solution−fluorescence polarization of positive control solution)]

## COc1cc(F)ccc1-c1ccc2c(c1COC(=O)c1cccs1)C(C)=CC(C)(C)N2 [Compound 1-21, 6-(4-Fluoro-2-methoxyphenyl)-5-[(thiophene-2-yl)carbonyloxymethyl]-2,2,4-trimethyl-1,2-dihydroquinoline]
  GR Binding ratio (%): 82%

## COc1ccc(Cl)cc1-c1ccc2c(c1COc1cc(F)ccc1C)C(C)=CC(C)(C)N2 [Compound 14-13, 6-(5-Chloro-2-methoxyphenyl)-5-(5-fluoro-2-methylphenoxymethyl)-2,2,4-trimethyl-1,2-dihydroquinoline]
  GR Binding ratio (%): ≥ 100%

## COc1ccc(C(=O)OCc2c(-c3ccc(F)cc3OC)ccc3c2C(C)=CC(C)(C)N3)s1 [Compound 12-33, 6-(4-Fluoro-2-methoxyphenyl)-5-[(5-methoxythiophen-2-yl)carbonyloxymethyl]-2,2,4-trimethyl-1,2-dihydroquinoline]
  GR Binding ratio (%): ≥ 100%

## CCc1ccc(C(=O)OCc2c(-c3ccc(F)cc3OC)ccc3c2C(C)=CC(C)(C)N3)s1 [Compound 12-20, 5-[(5-Ethylthiophen-2-yl)carbonyloxymethyl]-6-(4-fluoro-2-methoxyphenyl)-2,2,4-trimethyl-1,2-dihydroquinoline]
  GR Binding ratio (%): ≥ 100%

## COc1ccccc1NCc1c(-c2cc(F)c(F)cc2OC)ccc2c1C(C)=CC(C)(C)N2 [Compound 6-27, 6-(4,5-Difluoro-2-methoxyphenyl)-5-(2-methoxyphenylaminomethyl)-2,2,4-trimethyl-1,2-dihydroquinoline]
  GR Binding ratio (%): ≥ 100%

## COc1ccc([N+](=O)[O-])cc1OCc1c(-c2ccc(F)cc2OC)ccc2c1C(C)=CC(C)(C)N2 [Compound 3-61, 6-(4-Fluoro-2-methoxyphenyl)-5-(2-methoxy-5-nitrophenoxymethyl)-2,2,4-trimethyl-1,2-dihydroquinoline]
  GR Binding ratio (%): ≥ 100%

## COc1ccc(C(=O)OCc2c(-c3cc(F)ccc3OC)ccc3c2C(C)=CC(C)(C)N3)cc1 [Compound 12-75, 6-(5-Fluoro-2-methoxyphenyl)-5-(4-metoxybenzoyloxymethyl)-2,2,4-trimethyl-1,2-dihydroquinoline]
  GR Binding ratio (%): ≥ 100%

## COc1ccc(F)cc1-c1ccc2c(c1COc1cc(Cl)ccc1C)C(C)=CC(C)(C)N2 [Compound 14-41, 5-(5-Chloro-2-methylphenoxymethyl)-6-(5-fluoro-2-methoxyphenyl)-2,2,4-trimethyl-1,2-dihydroquinoline]
  GR Binding ratio (%): ≥ 100%

## COc1cc(F)ccc1-c1ccc2c(c1COC(=O)c1ccc(Br)s1)C(C)=CC(C)(C)N2 [Compound 12-25, 5-[(5-Bromothiophen-2-yl)carbonyloxymethyl]-6-(4-fluoro-2-methoxyphenyl)-2,2,4-trimethyl-1,2-dihydroquinoline]
  GR Binding ratio (%): ≥ 100%

## COc1cc(F)ccc1-c1ccc2c(c1COC(=O)c1cc(C)cs1)C(C)=CC(C)(C)N2 [Compound 12-21, 6-(4-Fluoro-2-methoxyphenyl)-5-[(4-methylthiophen-2-yl)carbonyloxymethyl]-2,2,4-trimethyl-1,2-dihydroquinoline]
  GR Binding ratio (%): ≥ 100%

## COc1cc(F)c(F)cc1-c1ccc2c(c1COC(=O)c1ccc(C)s1)C(C)=CC(C)(C)N2 [Compound 12-54, 6-(4,5-Difluoro-2-methoxyphenyl)-5-[(5-methylthiophen-2-yl)carbonyloxymethyl]-2,2,4-trimethyl-1,2-dihydroquinoline]
  GR Binding ratio (%): ≥ 100%

## COc1ccc(F)cc1-c1ccc2c(c1COc1ccccc1CCO)C(C)=CC(C)(C)N2 [Compound 3-99, 6-(5-Fluoro-2-methoxyphenyl)-5-[2-(2-hydroxyethyl)phenoxymethyl]-2,2,4-trimethyl-1,2-dihydroquinoline]
  GR Binding ratio (%): ≥ 100%
